Among the test systems are CAKI-1; COLO 205; HCT-15; HOP-62; HT-29; Hs-578T; IGROV-1; M14; MDA-N; OVCAR-8; RXF 393; SF-268; SK-MEL-2; SK-MEL-5; SK-OV-3; SR; TK-10.
What all share (experiment): NCI tumour cell line growth inhibition, 48 h

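Five compound concentrations were applied to cells in 96-well plates for 48 hours; endpoints were derived by simple linear interpolation of the resulting dose-response curve. Here, GI50 denotes the concentration required for 50% inhibition of growth.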 Active and inactive are the calls of the source. Cut-off read from the data, not from the text of the source: active = GI50 up to about 1.1 µM and inactive = higher.

For the compound `Cc1cc(O)c(-c2cc(O)c(C)cc2O)cc1O`, the GI50 was 6.07 µM (inactive) with CAKI-1; 7.16 µM (inactive) in the experiment with COLO 205; 7.67 µM in the experiment with HCT-15; 16.7 µM (inactive) in the experiment with HOP-62; 17.1 µM (inactive) in the experiment on HT-29; 25.9 µM (inactive) in the experiment with Hs-578T. Moreover, the GI50 in the experiment on IGROV-1 is 11.5 µM (inactive); in the experiment with M14 it was 7.67 µM (inactive); with MDA-N, 8.34 µM (inactive); in the experiment on OVCAR-8, 3.24 µM (inactive); in the experiment on RXF 393, 2.38 µM (inactive); in the experiment on SF-268, 19.1 µM (inactive). Further, the GI50 in the experiment on SK-MEL-2 was 17.2 µM (inactive); in the experiment on SK-MEL-5, 14.4 µM (inactive); in the experiment with SK-OV-3, 16.8 µM (inactive); in the experiment on SR, 0.977 µM (active); in the experiment on TK-10 it was 5.93 µM (inactive).

Regarding `COc1ncnc2c1cnn2Cc1cn(CCCCO)nn1`, the GI50 is > 100 µM (inactive) with CAKI-1; > 100 µM (inactive) in the experiment with COLO 205; greater than 100 µM with HCT-15; > 100 µM (inactive) with HOP-62; > 100 µM (inactive) in the experiment on HT-29; > 100 µM (inactive) with Hs-578T. Further, the GI50 in the experiment with IGROV-1, with M14, in the experiment on MDA-N, with OVCAR-8, with RXF 393 and with SF-268 was > 100 µM (inactive) each time. For the same compound, the GI50 in the experiment with SK-MEL-2, in the experiment on SK-MEL-5, in the experiment on SK-OV-3, in the experiment with SR and with TK-10 was > 100 µM (inactive) throughout.

With `CCN(CC)CCn1nc(N)c2nc3cc(Cl)ccc3nc21`, the GI50 was 51.4 µM (inactive) with CAKI-1; 35.7 µM (inactive) in the experiment with COLO 205; greater than 100 µM in the experiment with HCT-15; > 100 µM (inactive) in the experiment with HOP-62; 35.3 µM (inactive) in the experiment with HT-29; > 100 µM (inactive) with Hs-578T. Further, the GI50 with IGROV-1 is 16.3 µM (inactive); with M14, 37.8 µM (inactive); in the experiment on MDA-N, 86.5 µM (inactive); in the experiment with OVCAR-8, 42.4 µM (inactive); in the experiment on RXF 393 it was 88.9 µM (inactive); in the experiment on SF-268 it was 75.5 µM (inactive). Moreover, the GI50 in the experiment with SK-MEL-2 was 64.3 µM (inactive); with SK-MEL-5, 26.1 µM (inactive); in the experiment with SK-OV-3, > 100 µM (inactive); in the experiment on SR, 82.8 µM (inactive); with TK-10 it was > 100 µM (inactive).

As for `COc1ccc(CC2OC3(CCCCC3)CC3CCCCN32)cc1` (centres undefined), the GI50 is > 100 µM (inactive) in the experiment on CAKI-1; > 100 µM (inactive) with COLO 205; greater than 100 µM with HCT-15; > 100 µM (inactive) with HOP-62; 57.4 µM (inactive) in the experiment on HT-29; 36.7 µM (inactive) with Hs-578T. Also, the GI50 in the experiment on IGROV-1 is > 100 µM (inactive); in the experiment on M14, 76.6 µM (inactive); in the experiment on MDA-N, 52.6 µM (inactive); in the experiment with OVCAR-8, 40.9 µM (inactive); with RXF 393 it was > 100 µM (inactive); in the experiment on SF-268, > 100 µM (inactive). In addition, the GI50 with SK-MEL-2 was > 100 µM (inactive); in the experiment on SK-MEL-5 it was 49.2 µM (inactive); in the experiment with SK-OV-3, > 100 µM (inactive); in the experiment with SR, 28.8 µM (inactive); with TK-10, > 100 µM (inactive).

Consider `CS(=O)(=O)OC1CN2CCC1CC2` (centres undefined), for which the GI50 with CAKI-1 was > 100 µM (inactive); in the experiment on COLO 205 it was > 100 µM (inactive); with HCT-15 it was greater than 100 µM; with HOP-62 it was > 100 µM (inactive); with HT-29, > 100 µM (inactive); in the experiment on Hs-578T, > 100 µM (inactive). For the same compound, the GI50 with IGROV-1, in the experiment with M14, in the experiment on MDA-N, with OVCAR-8, with RXF 393 and in the experiment with SF-268 was > 100 µM (inactive) in each case. For the same compound, the GI50 in the experiment on SK-MEL-2, in the experiment on SK-MEL-5, with SK-OV-3, in the experiment on SR and with TK-10 was > 100 µM (inactive) in each case.

Regarding `NCCCc1ccc2oc3ccccc3c2c1`, the GI50 in the experiment with CAKI-1 is 16.2 µM (inactive); in the experiment on COLO 205, 17.5 µM (inactive); in the experiment with HCT-15 it was 17.6 µM; in the experiment on HOP-62 it was 17.6 µM (inactive); with HT-29, 12.6 µM (inactive); with Hs-578T, 21.3 µM (inactive). In addition, the GI50 is 20.6 µM (inactive) in the experiment on IGROV-1; 15.8 µM (inactive) in the experiment on M14; 15.6 µM (inactive) in the experiment with MDA-N; 22.7 µM (inactive) in the experiment on OVCAR-8; 17.9 µM (inactive) with RXF 393; 19.5 µM (inactive) with SF-268. Further, the GI50 with SK-MEL-2 was 20.4 µM (inactive); in the experiment with SK-MEL-5 it was 14.9 µM (inactive); with SK-OV-3 it was 17.1 µM (inactive); in the experiment with SR it was 16.2 µM (inactive); in the experiment with TK-10 it was 16.7 µM (inactive).

For the compound `COc1cc(C2SC(=N)Nc3c2c(C)nn3C(=O)c2ccc(Cl)cc2)ccc1O` (centres undefined), the GI50 was > 10 µM (inactive) in the experiment with CAKI-1; > 10 µM (inactive) in the experiment with COLO 205; greater than 10 µM in the experiment on HCT-15; > 10 µM (inactive) in the experiment with HOP-62; > 10 µM (inactive) with HT-29; > 10 µM (inactive) with Hs-578T. The GI50 in the experiment with IGROV-1 was > 10 µM (inactive); in the experiment on M14, > 10 µM (inactive); with MDA-N it was 0.236 µM (active); in the experiment on OVCAR-8 it was > 10 µM (inactive); in the experiment with RXF 393 it was > 10 µM (inactive); in the experiment with SF-268, > 10 µM (inactive). For the same compound, the GI50 with SK-MEL-2, in the experiment with SK-MEL-5, with SK-OV-3, in the experiment on SR and in the experiment on TK-10 was > 10 µM (inactive) each time.

`CC(C)(C)c1cc(OCc2nnc3sc(S)nn23)c(Cl)cc1OCc1nnc2sc(S)nn12`: the GI50 in the experiment with CAKI-1 was 33.6 µM (inactive); in the experiment on COLO 205, 39.1 µM (inactive); in the experiment on HCT-15, 40.6 µM; with HOP-62 it was 44.1 µM (inactive); in the experiment on HT-29, 38 µM (inactive); in the experiment with Hs-578T it was 77.3 µM (inactive). The GI50 was 23.2 µM (inactive) in the experiment with IGROV-1; 25.9 µM (inactive) in the experiment with M14; 18.9 µM (inactive) in the experiment with MDA-N; 37.2 µM (inactive) in the experiment on OVCAR-8; 22.4 µM (inactive) in the experiment with RXF 393; 24.9 µM (inactive) in the experiment with SF-268. Also, the GI50 is 27.4 µM (inactive) in the experiment with SK-MEL-2; 14.5 µM (inactive) in the experiment with SK-MEL-5; 45.4 µM (inactive) with SK-OV-3; 18.3 µM (inactive) in the experiment with SR; 35 µM (inactive) in the experiment with TK-10.

For the compound `CC1OC(n2cc(F)c(=O)[nH]c2=O)C(O[Si](C)(C)C(C)(C)C)C1O[Si](C)(C)C(C)(C)C` (centres undefined), the GI50 in the experiment with CAKI-1 is 13.6 µM (inactive); with COLO 205, 14.4 µM (inactive); in the experiment with HCT-15, 12.9 µM; in the experiment on HOP-62, 21.5 µM (inactive); in the experiment on HT-29, 10.8 µM (inactive); in the experiment on Hs-578T, 14.3 µM (inactive). Moreover, the GI50 in the experiment with IGROV-1 was 13.3 µM (inactive); in the experiment on M14 it was 20.2 µM (inactive); with MDA-N, 15.5 µM (inactive); in the experiment on OVCAR-8 it was 14.7 µM (inactive); in the experiment on RXF 393 it was 14 µM (inactive); in the experiment with SF-268, 12 µM (inactive). Moreover, the GI50 is 16.3 µM (inactive) with SK-MEL-2; 14.9 µM (inactive) with SK-MEL-5; 14.7 µM (inactive) in the experiment on SK-OV-3; 6.03 µM (inactive) in the experiment with SR; 10.7 µM (inactive) with TK-10.

Regarding `Cc1cc(C#N)c[n+](C)c1`, the GI50 was > 100 µM (inactive) in the experiment on CAKI-1; > 100 µM (inactive) in the experiment with COLO 205; greater than 100 µM in the experiment with HCT-15; > 100 µM (inactive) in the experiment with HOP-62; > 100 µM (inactive) in the experiment on HT-29; > 100 µM (inactive) in the experiment on Hs-578T. Further, the GI50 in the experiment on IGROV-1, in the experiment with M14, in the experiment with MDA-N, with OVCAR-8, in the experiment on RXF 393 and with SF-268 was > 100 µM (inactive) in each case. For the same compound, the GI50 with SK-MEL-2, in the experiment on SK-MEL-5, in the experiment on SK-OV-3, in the experiment on SR and in the experiment with TK-10 was > 100 µM (inactive) throughout.

On to `CN(C)c1ccc(/C=N/c2ccc(-c3nc4ccccc4[nH]3)cc2)cc1`, for which the GI50 was > 100 µM (inactive) in the experiment on CAKI-1; 60.8 µM (inactive) with COLO 205; 24.6 µM in the experiment with HCT-15; > 100 µM (inactive) in the experiment on HOP-62; 39.5 µM (inactive) in the experiment on HT-29; 63 µM (inactive) in the experiment on Hs-578T. Moreover, the GI50 in the experiment with IGROV-1 is 47.1 µM (inactive); with M14, > 100 µM (inactive); in the experiment with MDA-N it was > 100 µM (inactive); with OVCAR-8, > 100 µM (inactive); in the experiment on RXF 393, 24.2 µM (inactive); with SF-268, 60 µM (inactive). Besides, the GI50 is > 100 µM (inactive) with SK-MEL-2; 56.9 µM (inactive) in the experiment on SK-MEL-5; > 100 µM (inactive) in the experiment with SK-OV-3; 12.9 µM (inactive) in the experiment with SR; > 100 µM (inactive) in the experiment with TK-10.

Turning to `C[C@@]12C[C@@H](c3ccccc3O1)N1CCSC1=N2`, the GI50 in the experiment on CAKI-1 is > 100 µM (inactive); in the experiment on COLO 205 it was > 100 µM (inactive); in the experiment on HCT-15, greater than 100 µM; in the experiment with HOP-62, > 100 µM (inactive); in the experiment on HT-29 it was > 100 µM (inactive); with Hs-578T it was > 100 µM (inactive). In addition, the GI50 in the experiment on IGROV-1, with M14, in the experiment with MDA-N, in the experiment on OVCAR-8, in the experiment with RXF 393 and in the experiment on SF-268 was > 100 µM (inactive) each time. Further, the GI50 with SK-MEL-2, with SK-MEL-5, in the experiment with SK-OV-3, with SR and in the experiment with TK-10 was > 100 µM (inactive) each time.

For the origin of these results see ChEMBL document CHEMBL1201862, “PubChem BioAssay data set” (2004).
